From paper PMC11809919, “Quinoxaline-based anti-schistosomal compounds have potent anti-plasmodial activity” (PLOS Pathogens, 2025)
Where “and” joins values, the source holds several entries; their conditions need not be identical. Identical values can stand only once. Like-named read-outs stand apart in the source and are kept apart here.

Experiments:
[1] = system: P. falciparum PfQRP1 mutants (G1612V, D1863Y, D1829*, D1829A); test: Dose-response assay on CRISPR-edited PfQRP1 mutant lines; format: cell-based, Plasmodium falciparum
Protocol: To generate the PfQRP1 hydrolase mutants (D1829stop and D1829A), the pDC2-Cas9-gRNA-donor plasmid was transfected into the P. falciparum Dd2 line. Donor plasmid (50 µg) containing the sgRNA ([…]) and a pfqrp1 homology region of 672 bp, centred on the D1829 residue, was used for transfection. Transfectants were selected using 5 nM WR99210 (a potent inhibitor of P. falciparum dihydrofolate reductase (DHFR) provided by Jacobus Pharmaceuticals) for 8 days, followed by culturing without drug until parasites were observed. Parasite clones were obtained using limiting dilution cloning. Confirmation of gene editing was performed with allele-specific PCR (forward primer […] and reverse primer […]) and Sanger sequencing using an internal primer ([…]).
(§1) Compound dose-response assays were performed in flat-bottom 96-well plates. Tightly synchronized ring-stage parasites were diluted to 1% parasitemia at 2% hematocrit, and incubated with a two-fold serial dilution of compounds in complete medium. Untreated parasites or uninfected RBCs were included in the assay plate as controls. Parasite growth was assessed after 72 h by lysing parasites using 2× lysis buffer consisting of 10 mM Tris-HCl, 5 mM EDTA, 0.1% w/v saponin, and 1% v/v Triton X-100, supplemented with 2× SYBR Green I (Molecular Probes). The fluorescence was measured using a FluorStar Omega v5.11 plate reader. IC50 analysis was performed using GraphPad Prism v9, and statistical significance was determined by a two-sided Mann-Whitney U test. All assays were performed in technical duplicate with at least three biological replicates, as noted in the figure legends.

β-hematin formation = test: Detergent-based β-hematin inhibition assay; format: biochemical; settings: cell-free, NP40 detergent, pH 4.8
Protocol: From this stock 40 μL of each was delivered to wells in the final column (column 12) of a 96-well plate together with distilled water (120 μL) and NP40 detergent (305.5 mM, 40 μL). […] A serial dilution of each compound (100 μL) from column 12 to column 2 was carried out. Column 1 served as a blank with 0 mM sample. A 25 mM hematin stock solution was prepared by sonicating hemin in DMSO for one minute and then suspending 179 μL of this in a 1 M acetate buffer (20 mL, pH 4.8). […] The plate was covered and incubated at 37°C for 5 h. […] Acetone (60 μL) was then added to assist with hematin dispersion. The UV-vis absorbance of the plate wells was read on a SpectraMax […] plate reader.

[2] = system: 3D7 parasites (hemoglobin, 'free' heme, hemozoin); test: Cellular heme fractionation assay; format: cell-based, Plasmodium falciparum; settings: 3D7, 0.5 – 2.5× IC50, 30 h
Excerpt: Cellular heme fractionation to measure the amounts of different heme species was thereafter conducted as previously described. […] Pellets were then resuspended in 1× PBS (pH 7.5) and an aliquot of the trophozoite suspension used to quantify the total number of trophozoites isolated using flow cytometry. Contents of the remaining trophozoite pellet were then released by hypotonic lysis and sonication. […] The UV−visible spectrum of each heme fraction as an Fe(III)heme−pyridine complex was measured using a multi-well plate reader (Spectramax 340PC; Molecular Devices). The total amount of each heme species was quantified using a heme standard curve whereby the mass of each heme-Fe species per trophozoite (fg/cell) was calculated by dividing the total amount of each heme species by the corresponding number of parasites in that fraction as determined by flow cytometry. Statistical comparisons and analyses for trends were made on GraphPad Prism version 10 using Students’ t-test with Welch correction. The total amount of heme obtained from each fraction was quantified using a standard curve prepared from a 100 μg/mL heme standard solution of hematin (porcine) in 0.3 M NaOH. Serial dilutions of this standard were carried out in a 96-well plate with 100 μL 0.3 M NaOH as a blank. […] The visible spectra of heme as Fe(III)heme-pyridine complex were recorded in a multi-well plate reader. The amount of heme Fe per cell was calculated by dividing the total heme Fe in each fraction by the number of cells determined in each fraction.

[3] = system: Dd2-Polδ clones C22-1.1 and C22-2.1; test: Dose-response assay on compound 22-selected clones (cross-resistance); format: cell-based, Plasmodium falciparum
Protocol: Resistance selections were performed using a mutator parasite line Dd2-Polδ with an elevated mutation rate. Three independent flasks with either 1×10^8 or 1×10^9 parasites each were treated with 5×IC50, and parasite death was monitored by microscopy (Giemsa staining). […] After eight days, compounds were removed from the media and the media was changed on alternate days. […] For recrudescent cultures, compound susceptibility was determined by dose-response assays. Parasite clones were obtained by limiting dilution and harvested for genomic DNA extraction, followed by whole-genome sequencing.
as §1

P. falciparum 3D7 = test: Compound dose-response assay (72 h, SYBR Green I), 3D7; format: cell-based, Plasmodium falciparum; settings: for Change of anti-plasmodial activity relative to compound 22: 3D7 and Dd2; for Selectivity index HepG2/3D7: HepG2 72 h CC50 / Pf 3D7 IC50; for IC50: 72 h, asexual blood stage
Protocol: (§2) P. falciparum parasites were cultured at 3% hematocrit in RPMI 1640 (Gibco) medium consisting of 0.5% Albumax II (Gibco), 25 mM HEPES (Sigma), 0.21% sodium bicarbonate, 1x GlutaMAX (Gibco), 25 μg/mL gentamicin (Gibco). A tri-gas mixture (1% O2, 3% CO2, and 96% N2) was used for parasite cultures. Parasites were synchronized using a sorbitol and Percoll density gradient method. The following parasite strains were used: 3D7, Dd2 (MR4, MRA-156, T. Wellems), GB4 (MR4, MRA-925, T. Wellems), UG659 (P. Rosenthal), Tanzania (MR4, MRA-1169, Michal Fried), Cam/PH0212C (R. Fairhurst), and Cam3.II/ PH0306-C (R. Fairhurst). Transfection was performed using ring-stage parasites (5–8% parasitemia) using a Gene Pulser Xcell (Biorad) electroporator.
as §1

P. falciparum Dd2 = test: Compound dose-response assay (72 h, SYBR Green I), Dd2; format: cell-based, Plasmodium falciparum; settings: for Selectivity index HepG2/Dd2: HepG2 72 h CC50 / Pf Dd2 IC50; for IC50: Plasmodium falciparum, DD2, 72 h, 72 h, asexual blood stage
Protocol: as §2, §1

S. mansoni schistosomula = system: S. mansoni schistosomula; design: method as in Padalino et al. [13]; settings: ref Padalino et al. [13], cited from earlier work
HepG2 cells = system: HepG2 cells; design: method as in Padalino et al. [13]; settings: ref Padalino et al. [13], cited from earlier work
[4] = read-out: βH Inhibition IC50, individual biological replicate
[5] = Plasmodium falciparum, 3D7, 72 h
[6] = 72 h, read-out: 72 h -phenotype EC50
[7] = average of phenotype and motility, read-out: Average EC50
[8] = HepG2, 24 h, read-out: 24 h CC50
[9] = HepG2, 72 h, read-out: 72 h CC50

Compound: 2-N,3-N-bis[3-(trifluoromethyl)phenyl]quinoxaline-2,3-diamine [MMV665794]
- Effect of D1829 stop / D1829A PfQRP1 mutation on IC50 [1]: less potent
- IC50 (β-hematin formation; [4]): 257 µM and 217 µM
- Levels of 'free' heme or hemozoin relative to untreated controls [2]: no significant changes

Compound: CNC(=O)CNc1cnc2ccc(-c3ccc(OC)c(OC)c3)cc2n1 [BQR695, 2-[[7-(3,4-dimethoxyphenyl)quinoxalin-2-yl]amino]-N-methylacetamide, reference compound]
- Shift in IC50 in compound 22-selected clones versus parental Dd2-Polδ [3]: no cross resistance

Compound: CCN(CC)CCCC(C)Nc1ccnc2cc(Cl)ccc12 (stereo not shown) [Chloroquine, chloroquine]
- IC50 (β-hematin formation; mean of two biological replicates, listed as chloroquine, read-out: βH Inhibition IC50, mean): 16 µM
- IC50 (β-hematin formation; mean of two biological replicates, read-out: βH Inhibition IC50, mean): 15.6 µM
- IC50 (β-hematin formation; [4]): 16.7 µM and 14.5 µM
- Levels of 'free' heme or hemozoin relative to untreated controls [2]: significant concentration-dependent increases

Compound: CC(=O)Nc1ccc2nc(Nc3ccc(Cl)c(Cl)c3)c(Nc3ccc(Cl)c(Cl)c3)nc2c1 [Compound 22c]
- Change of anti-plasmodial activity relative to compound 22 (P. falciparum 3D7): greatly diminished activity
- Selectivity index HepG2/3D7 (P. falciparum 3D7): 58.1
- IC50 (P. falciparum 3D7; [5]): 0.079 µM
- Selectivity index HepG2/Dd2 (P. falciparum Dd2): 25.4
- IC50 (P. falciparum Dd2): 0.181 µM
- EC50 (S. mansoni schistosomula; [6]): 3.04 µM
- EC50 (S. mansoni schistosomula; [7]): 2.91 µM
- EC50 (S. mansoni schistosomula; read-out: Motility EC50): 2.79 µM
- CC50 (HepG2 cells; [8]): 8.6 µM
- CC50 (HepG2 cells; [9]): 4.59 µM

Compound: O=C(Nc1ccc2nc(Nc3ccc(Cl)c(Cl)c3)c(Nc3ccc(Cl)c(Cl)c3)nc2c1)c1ccco1 [Compound 22f]
- Change of anti-plasmodial activity relative to compound 22 (P. falciparum 3D7): greatly diminished activity
- IC50 (P. falciparum 3D7): 0.287 µM
- Selectivity index HepG2/3D7 (P. falciparum 3D7): 19.8
- IC50 (P. falciparum 3D7; [5]): 0.287 ± 0.0033 µM
- Selectivity index HepG2/Dd2 (P. falciparum Dd2): 14.9
- IC50 (P. falciparum Dd2): 0.382 µM
- EC50 (S. mansoni schistosomula; [6]): 1.91 µM
- EC50 (S. mansoni schistosomula; [7]): 1.95 µM
- EC50 (S. mansoni schistosomula; read-out: Motility EC50): 2 µM
- CC50 (HepG2 cells; [8]): 14.8 µM
- CC50 (HepG2 cells; [9]): 5.69 µM

Compound: O=[N+]([O-])c1ccc2nc(Nc3cccc(Cl)c3)c(Nc3cccc(Cl)c3)nc2c1 [Compound 25]
- Selectivity index HepG2/3D7 (P. falciparum 3D7): 10.1
- IC50 (P. falciparum 3D7; [5]): 0.0577 µM
- Selectivity index HepG2/Dd2 (P. falciparum Dd2): 9.2
- IC50 (P. falciparum Dd2): 0.0634 µM
- EC50 (S. mansoni schistosomula; [6]): 1.22 µM
- EC50 (S. mansoni schistosomula; [7]): 1.26 µM
- EC50 (S. mansoni schistosomula; read-out: Motility EC50): 1.3 µM
- CC50 (HepG2 cells; [8]): 6.76 µM
- CC50 (HepG2 cells; [9]): 0.58 µM

Compound: O=[N+]([O-])c1ccc2nc(Nc3ccc(Cl)cc3)c(Nc3ccc(Cl)cc3)nc2c1 [Compound 26]
- Selectivity index HepG2/3D7 (P. falciparum 3D7): 4.3
- IC50 (P. falciparum 3D7; [5]): 0.0299 µM
- Selectivity index HepG2/Dd2 (P. falciparum Dd2): 3.5
- IC50 (P. falciparum Dd2): 0.0368 µM
- EC50 (S. mansoni schistosomula; [6]): 0.42 µM
- EC50 (S. mansoni schistosomula; [7]): 0.41 µM
- EC50 (S. mansoni schistosomula; read-out: Motility EC50): 0.39 µM
- CC50 (HepG2 cells; [8]): 13.1 µM
- CC50 (HepG2 cells; [9]): 0.13 µM

Compound: O=[N+]([O-])c1ccc2nc(Nc3cccc(C(F)(F)F)c3)c(Nc3cccc(C(F)(F)F)c3)nc2c1 [Compound 30]
- Selectivity index HepG2/3D7 (P. falciparum 3D7): 67.2
- IC50 (P. falciparum 3D7; [5]): 0.0134 µM
- Selectivity index HepG2/Dd2 (P. falciparum Dd2): 40.9
- IC50 (P. falciparum Dd2): 0.022 µM
- Shift in IC50 in compound 22-selected clones versus parental Dd2-Polδ [3]: modest shift with one of the compound 22-resistant clones
- EC50 (S. mansoni schistosomula; [6]): 0.34 µM
- EC50 (S. mansoni schistosomula; [7]): 0.38 µM
- EC50 (S. mansoni schistosomula; read-out: Motility EC50): 0.43 µM
- CC50 (HepG2 cells; [8]): 5.85 µM
- CC50 (HepG2 cells; [9]): 0.9 µM

Compound: O=[N+]([O-])c1ccc2nc(Nc3ccc(F)c(C(F)(F)F)c3)c(Nc3ccc(F)c(C(F)(F)F)c3)nc2c1 [Compound 32]
- Selectivity index HepG2/3D7 (P. falciparum 3D7): 40.4
- IC50 (P. falciparum 3D7; [5]): 0.0166 µM
- Selectivity index HepG2/Dd2 (P. falciparum Dd2): 24.1
- IC50 (P. falciparum Dd2): 0.0278 µM
- Shift in IC50 in compound 22-selected clones versus parental Dd2-Polδ [3]: modest shift with one of the compound 22-resistant clones
- EC50 (S. mansoni schistosomula; [6]): 0.89 µM
- EC50 (S. mansoni schistosomula; [7]): 0.72 µM
- EC50 (S. mansoni schistosomula; read-out: Motility EC50): 0.54 µM
- CC50 (HepG2 cells; [8]): 7.75 µM
- CC50 (HepG2 cells; [9]): 0.67 µM

Compound: COc1ccc(Nc2nc3ccc([N+](=O)[O-])cc3nc2Nc2ccc(OC)c(C(F)(F)F)c2)cc1C(F)(F)F [Compound 35]
- Selectivity index HepG2/3D7 (P. falciparum 3D7): 7.4
- IC50 (P. falciparum 3D7; [5]): 0.0578 µM
- Selectivity index HepG2/Dd2 (P. falciparum Dd2): 3.8
- IC50 (P. falciparum Dd2): 0.112 µM
- Shift in IC50 in compound 22-selected clones versus parental Dd2-Polδ [3]: modest shift with one of the compound 22-resistant clones
- EC50 (S. mansoni schistosomula; [6]): 0.63 µM
- EC50 (S. mansoni schistosomula; [7]): 0.66 µM
- EC50 (S. mansoni schistosomula; read-out: Motility EC50): 0.69 µM
- CC50 (HepG2 cells; [8]): 5.64 µM
- CC50 (HepG2 cells; [9]): 0.43 µM

Compound: O=[N+]([O-])c1ccc2nc(NCCc3ccccc3)c(NCCc3ccccc3)nc2c1 [Compound 37]
- Selectivity index HepG2/3D7 (P. falciparum 3D7): 20.5
- IC50 (P. falciparum 3D7; [5]): 0.22 µM
- Loss in potency (P. falciparum 3D7; relative to compound 22): ten-fold
- Selectivity index HepG2/Dd2 (P. falciparum Dd2): 17.1
- IC50 (P. falciparum Dd2): 0.264 µM
- EC50 (S. mansoni schistosomula; [6]): 2.2 µM
- EC50 (S. mansoni schistosomula; [7]): 1.84 µM
- EC50 (S. mansoni schistosomula; read-out: Motility EC50): 1.47 µM
- CC50 (HepG2 cells; [8]): 4.4 µM
- CC50 (HepG2 cells; [9]): 4.52 µM

Compound: C[C@H]1Cc2c([nH]c3cc(Cl)c(F)cc23)[C@@]2(N1)C(=O)Nc1ccc(Cl)cc12 [KAE609]
- IC50 (β-hematin formation; [4]): > 500 µM
